In brackets after ≈: the same amount, converted by molar mass. Like-named read-outs stand apart in the source and are kept apart here. Square brackets hold non-standard residues; d marks the D form. Peptide text beside a SMILES is read from it. * marks the point of attachment. Fmoc = O=C(OCC1c2ccccc2-c2ccccc21)*
Tests used:
[1] = test system: Escherichia coli ATCC 25922
[2] = test system: Staphylococcus aureus ATCC 29213
Experimental: Escherichia coli ATCC 25922 and P. aeruginosa ATCC 27853 were used as Gram-negative (-) and Staphylococcus aureus ATCC 29213 as Gram-positive (+) bacteria. Bacteria were grown overnight at 37° C. in Mueller-Hinton (MH) broth. This culture was reinoculated and incubated at 37° C. to reach the exponential phase of bacteria growth, i.e., a final bacterial suspension containing 10^5 to 5×10^5 colony-forming units (CFU)/ml. The concentration of cells was established by plating 100 μl of different dilutions of the culture solution (e.g., 10^-2, 10^-3 and 10^-4) onto solid agar plates.
Following an overnight incubation at 37° C., the CFU thus formed were counted on each agar plate. In 96-well tissue culture plates, as control blanks, eight wells per plate contained only medium, while as a positive growth control, eight other wells contained medium plus cells.
The plates were incubated overnight at 37° C., and the optical density (OD) determined at 620 nm after different times of incubation.

[3] = test system: Candida albicans ATCC 10231
[4] = test system: Human red blood cells (RBCs); test: Hemolytic activity; format: cell-based
[5] = test system: Streptococcus sanguis ATCC 10556
[6] = Tables 2-5, concentration necessary to inhibit 50% growth
[7] = Tables 3-5, lower parts (unnatural amino acids)
[8] = Tables 7-9, lower parts (unnatural amino acids)
[9] = Tables 15-17, lower parts (unnatural amino acids)
[10] = Tables 11-13, lower parts (unnatural amino acids)

Row | Compound | IC50 against E. coli [1, 6] | IC50 against S. aureus ([2]; Tables 6-9) | IC50 against C. albicans ([3]; Tables 14-17) | HD50 (concentration necessary to lyse 50% of the cells) ([4]; Tables 18-21) | IC50 against S. sanguis ([5]; Tables 10-13) | IC50 against E. coli [1, 7] | IC50 against S. aureus [2, 8] | IC50 against C. albicans [3, 9] | IC50 against S. sanguis [5, 10] | HD50 (concentration necessary to lyse 50% of the cells) ([4]; Table 20, lower part)
1 | NCCCC[C@H](NC(=O)OCC1c2ccccc2-c2ccccc21)C(=O)N[C@@H](Cc1c[nH]c2ccccc12)C(=O)N[C@@H](Cc1ccc(O)cc1)C(=O)N[C@H](CO)C(N)=O [(KFmoc)WYs-NH2] (Fmoc-KWY[dS]-NH2) | 106 µg/mL (≈ 132 µM) | 5 µg/mL (≈ 6.22 µM) | 353 µg/mL (≈ 439 µM) | 27 µg/mL | 5 µg/mL (≈ 6.22 µM) |  |  |  |  | 
2 | C[C@H](O)[C@@H](NC(=O)[C@H](Cc1ccc(O)cc1)NC(=O)[C@H](Cc1c[nH]c2ccccc12)NC(=O)[C@H](CCCCN)NC(=O)OCC1c2ccccc2-c2ccccc21)C(N)=O [(KFmoc)WYt-NH2] (Fmoc-KWY[dT]-NH2) | 81 µg/mL (≈ 99 µM) | 9 µg/mL (≈ 11 µM) | 161 µg/mL (≈ 197 µM) | 37 µg/mL | 8 µg/mL (≈ 9.78 µM) |  |  |  |  | 
3 | CC(C)C[C@@H](NC(=O)[C@@H](Cc1ccccc1)NC(=O)[C@H](Cc1c[nH]c2ccccc12)NC(=O)[C@H](CCCCN)NC(=O)OCC1c2ccccc2-c2ccccc21)C(N)=O [(KFmoc)Wfl-NH2] (Fmoc-KW[dF][dL]-NH2) | 28 µg/mL (≈ 34.4 µM) | 2 µg/mL (≈ 2.46 µM) | 127 µg/mL (≈ 156 µM) | 197 µg/mL | 2 µg/mL (≈ 2.46 µM) |  |  |  |  | 
4 | NCCCC[C@H](NC(=O)OCC1c2ccccc2-c2ccccc21)C(=O)N[C@@H](Cc1c[nH]c2ccccc12)C(=O)N[C@H](Cc1ccccc1)C(=O)N1CCC[C@@H]1C(N)=O [(KFmoc)Wfp-NH2] (Fmoc-KW[dF][dP]-NH2) | 30 µg/mL (≈ 37.6 µM) | 7 µg/mL (≈ 8.77 µM) | 347 µg/mL (≈ 435 µM) | 65 µg/mL | 6 µg/mL (≈ 7.52 µM) |  |  |  |  | 
5 | N=C(N)NCCC[C@@H](NC(=O)[C@@H](Cc1ccccc1)NC(=O)[C@H](Cc1c[nH]c2ccccc12)NC(=O)[C@H](CCCCN)NC(=O)OCC1c2ccccc2-c2ccccc21)C(N)=O [(KFmoc)Wfr-NH2] (Fmoc-KW[dF][dR]-NH2) | 15 µg/mL (≈ 17.5 µM) | 2 µg/mL (≈ 2.33 µM) | 42 µg/mL (≈ 49 µM) | 42 µg/mL | 2 µg/mL (≈ 2.33 µM) |  |  |  |  | 
6 | (KFmoc)WK(dOrn)-NH2 | 69 µg/mL | 5 µg/mL | 196 µg/mL | 369 µg/mL | 5 µg/mL |  |  |  |  | 
7 | (KFmoc)WY(dOrn)-NH2 |  |  |  | 67 µg/mL |  | 35 μg/m | 5 μg/m | 359 μg/m | 7 μg/m | 
8 | (KFmoc)Wf(Bala)-NH2 |  |  |  |  |  | 70 μg/m | 11 μg/m | 170 μg/m | 10 μg/m | 360 μg/m
9 | (KFmoc)Wf(Hyp)-NH2 |  |  |  |  |  | 44 μg/m | 5 μg/m | 95 μg/m | 8 μg/m | 37 μg/m
10 | (KFmoc)Wf(KCBZ)-NH2 |  |  |  |  |  | 28 μg/m | 3 μg/m | 58 μg/m | 4 μg/m | 52 μg/m
11 | (KFmoc)Wf(aABA)-NH2 |  |  |  |  |  | 21 μg/m | 6 μg/m | 72 μg/m | 7 μg/m | 241 μg/m
12 | (KFmoc)Wf(aAIB)-NH2 |  |  |  |  |  | 27 μg/m | 4 μg/m | 62 μg/m | 4 μg/m | 383 μg/m
13 | (KFmoc)Wf(dOrn)-NH2 |  |  |  |  |  | 19 μg/m | 4 μg/m | 54 μg/m | 4 μg/m | 42 μg/m

From patent publication US5440016A, “Peptides of the formula (KFmoc) ZZZ and their uses” (priority 1993, dated 1995)
